Measured values from patent US20250230193A1, “CYCLIC COMPOUND HAVING SELECTIVE KRAS INHIBITORY EFFECT ON HRAS AND NRAS” (CHUGAI SEIYAKU KABUSHIKI KAISHA, priority 2022, published 2025).
Where a SMILES comes first, the peptide text is derived from it. Bridges are numbered along the chain shown (N, C = ends). [ ]: non-standard residue; d: D form. The star is where a group is joined. hPhe(3-Cl-4-CF3) = N[C@@H](CCc1ccc(C(F)(F)F)c(Cl)c1)C(=O)O; NPrPhe(4-CF3) = CCCN[C@@H](Cc1ccc(C(F)(F)F)cc1)C(=O)O; NMeGly(cPent) = CN[C@H](C(=O)O)C1CCCC1; Hyp = O=C(O)[C@@H]1C[C@@H](O)CN1; NMeL = CN[C@@H](CC(C)C)C(=O)O; Morpholide = C1CN(*)CCO1; NMeA = CN[C@@H](C)C(=O)O; Ac5c = NC1(C(=O)O)CCCC1; Aze = O=C(O)[C@@H]1CCN1; Sar = CNCC(=O)O

Assays:
[1] = biological target: GDP-bound NRAS wild-type protein (Homo sapiens, UniProt P01111); assay: Binding to NRAS by surface plasmon resonance (SPR), Single Cycle Kinetics; details: for NRAS/KRAS (ratio of KD value with respect to NRAS to KD value with respect to KRAS): GDP-bound NRAS wild-type vs GDP-bound KRAS wild-type
[2] = biological target: GDP-bound HRAS wild-type protein (Homo sapiens, UniProt P01112); assay: Binding to HRAS by surface plasmon resonance (SPR), Single Cycle Kinetics; details: for HRAS/KRAS (ratio of KD value with respect to HRAS to KD value with respect to KRAS): GDP-bound HRAS wild-type vs GDP-bound KRAS wild-type
Chain of GDP-bound HRAS wild-type protein (P01112 whole entry): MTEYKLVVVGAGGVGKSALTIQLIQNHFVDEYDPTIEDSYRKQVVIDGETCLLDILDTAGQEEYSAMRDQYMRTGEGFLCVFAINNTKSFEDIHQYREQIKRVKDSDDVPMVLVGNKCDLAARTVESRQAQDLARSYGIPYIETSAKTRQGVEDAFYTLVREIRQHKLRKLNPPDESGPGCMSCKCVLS

Chain of GDP-bound NRAS wild-type protein (P01111 whole entry): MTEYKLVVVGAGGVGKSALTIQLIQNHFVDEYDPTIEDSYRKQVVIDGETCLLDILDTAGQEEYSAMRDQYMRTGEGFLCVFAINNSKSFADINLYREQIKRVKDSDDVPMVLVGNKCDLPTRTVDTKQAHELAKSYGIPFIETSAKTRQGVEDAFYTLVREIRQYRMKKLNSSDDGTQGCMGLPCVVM

Which results are given for `CCCN1C(=O)[C@@H]2CCN2C(=O)[C@H](C)N(C)C(=O)[C@H]([C@@H](C)CC)NC(=O)[C@H](CC(C)C)N(C)C(=O)C[C@@H](C(=O)N2CCOCC2)NC(=O)[C@H](C2CCCC2)N(C)C(=O)C2(CCCC2)NC(=O)[C@@H]2CCCN2C(=O)[C@H](CCc2ccc(C(F)(F)F)c(Cl)c2)NC(=O)CN(C)C(=O)[C@@H]1Cc1ccc(C(F)(F)F)cc1` [PP0343] ([NMeL]I[NMeA][Aze][NPrPhe(4-CF3)][Sar][hPhe(3-Cl-4-CF3)]P[Ac5c][NMeGly(cPent)]D-Morpholide; lactam N-11)?
NRAS/KRAS (ratio of KD for GDP-bound NRAS wild-type to KD for KRAS) ([1]; KD ratio NRAS/KRAS, SPR): C (A compound having a KD ratio of 0.1 or more and less than 3 is denoted as C); HRAS/KRAS (ratio of KD for GDP-bound HRAS wild-type to KD for KRAS) ([2]; KD ratio HRAS/KRAS, SPR): B (a compound having 3 or more and less than 10 is denoted as B)

What does the source list for `CCCN1C(=O)CN(C)C(=O)CNC(=O)[C@H]([C@@H](C)CC)NC(=O)[C@H](CC(C)C)N(C)C(=O)C[C@@H](C(=O)N(C)C)NC(=O)[C@H](C2CCCC2)N(C)C(=O)C2(CCCC2)NC(=O)[C@@H]2C[C@@H](OCC)CN2C(=O)[C@H](CCc2ccc(C(F)(F)F)c(Cl)c2)NC(=O)CN(C)C(=O)[C@@H]1Cc1ccc(C(F)(F)F)cc1` [PP0365] ([NMeL]IG[Sar][NPrPhe(4-CF3)][Sar][hPhe(3-Cl-4-CF3)][Hyp](Et)[Ac5c][NMeGly(cPent)]D-NMe2; lactam N-11)?
NRAS/KRAS (ratio of KD for GDP-bound NRAS wild-type to KD for KRAS) ([1]; KD ratio NRAS/KRAS, SPR): B (a compound having 3 or more and less than 10 is denoted as B); HRAS/KRAS (ratio of KD for GDP-bound HRAS wild-type to KD for KRAS) ([2]; KD ratio HRAS/KRAS, SPR): B (a compound having 3 or more and less than 10 is denoted as B)

How did the “NRAS/KRAS (ratio of KD value with respect to NRAS to KD value with respect to KRAS)” value ([1]; KD ratio, SPR) turn out when `CCO[C@@H]1C[C@H]2C(=O)NC3(CCCC3)C(=O)N(C)[C@@H](C3CCCC3)C(=O)N(C)[C@H](C(=O)N(C)C)CC(=O)N(C)[C@@H](CC)C(=O)N[C@@H]([C@@H](C)CC)C(=O)N(C)CC(=O)N(C)[C@H]3CC(C)=CCN(C3=O)[C@@H](Cc3ccc(C(F)(F)F)cc3)C(=O)N(C)CC(=O)N[C@@H](CCc3cc(F)c(C(F)(F)F)c(F)c3)C(=O)N2C1` [PP1036] was run?
Its value is “C (A compound having a KD ratio of 0.1 or more and less than 3 is denoted as C)”.

And the “HRAS/KRAS (ratio of KD value with respect to HRAS to KD value with respect to KRAS)” value ([2]; KD ratio, SPR)?
The value was “C (A compound having a KD ratio of 0.1 or more and less than 3 is denoted as C)”.

Which results are given for `CC[C@H](C)[C@@H]1NC(=O)[C@H](CC(C)C)N(C)C(=O)C[C@@H](C(=O)N(C)C)N(C)C(=O)[C@H](C2CCCC2)N(C)C(=O)C2(CC(C)(C)C2)NC(=O)[C@@H]2C[C@@H](C)CN2C(=O)[C@H](CCc2cc(F)c(C(F)(F)F)c(F)c2)NC(=O)CN(C)C(=O)[C@H](Cc2ccc(C)cc2)N2CC/C=C\C[C@@H](C2=O)N(C)C(=O)CN(C)C1=O` [PP2223]?
NRAS/KRAS (ratio of KD value with respect to NRAS to KD value with respect to KRAS) ([1]; SPR): A (a compound having 10 or more and less than 20 is denoted as A); HRAS/KRAS (ratio of KD value with respect to HRAS to KD value with respect to KRAS) ([2]; SPR): A (a compound having 10 or more and less than 20 is denoted as A)

What does the source list for `CCOC[C@H]1C(=O)N[C@@H]([C@@H](C)CC)C(=O)N(C)CC(=O)N(C)[C@H]2C/C=C\CCN(C2=O)[C@@H](Cc2ccc(C(F)(F)F)cc2)C(=O)N(C)CC(=O)N[C@@H](CCc2ccc(C(F)(F)F)c(OC)c2)C(=O)N2C[C@H](OCC)C[C@H]2C(=O)NC2(CC(C)(C)C2)C(=O)N(C)[C@@H](CC2CCC2)C(=O)N(C)[C@H](C(=O)N(C)C)CC(=O)N1C` [PP2765]?
NRAS/KRAS (ratio of KD value with respect to GDP-bound NRAS wild-type protein to KD value with respect to KRAS) ([1]; KD ratio NRAS/KRAS, class symbols): A (a compound having 10 or more and less than 20 is denoted as A); HRAS/KRAS (ratio of KD value with respect to GDP-bound HRAS wild-type protein to KD value with respect to KRAS) ([2]; KD ratio HRAS/KRAS, class symbols): A (a compound having 10 or more and less than 20 is denoted as A)

`CCO[C@@H]1C[C@H]2C(=O)NC3(CC(C)(C)C3)C(=O)N(C)[C@@H](C(CC)CC)C(=O)N(C)[C@H](C(=O)N(C)C)CC(=O)N(C)[C@@H](COC)C(=O)N[C@@H]([C@@H](C)CC)C(=O)N(C)CC(=O)N(C)[C@H]3C/C=C\CCN(C3=O)[C@@H](Cc3ccc(C(F)(F)F)cc3)C(=O)N(C)CC(=O)N[C@@H](CCc3ccc(C(F)(F)F)c(Cl)c3)C(=O)N2C1` [PP2126] was tested. Which “NRAS/KRAS (ratio of KD value with respect to NRAS to KD value with respect to KRAS)” value ([1]; SPR) did it give?
The value was “A (a compound having 10 or more and less than 20 is denoted as A)”.

What about the “HRAS/KRAS (ratio of KD value with respect to HRAS to KD value with respect to KRAS)” value ([2]; SPR) of the same molecule?
Its value is “B (a compound having 3 or more and less than 10 is denoted as B)”.

What does the source list for `CCO[C@@H]1C[C@H]2C(=O)NC3(CCC3)C(=O)N(C)[C@@H](C3CCCC3)C(=O)N(C)[C@H](C(=O)N(C)CCOC)CC(=O)N(C)[C@@H](CC(C)C)C(=O)N[C@@H]([C@@H](C)CC)C(=O)N(C)CC(=O)N(C)[C@H]3C/C=C\CCN(C3=O)[C@@H](Cc3ccc(C(F)(F)F)cc3)C(=O)N(C)CC(=O)N[C@@H](CCc3ccc(Cl)c(Cl)c3)C(=O)N2C1` [PP1326]?
NRAS/KRAS (ratio of KD value for GDP-bound NRAS wild-type protein to KD value for KRAS) ([1]; SPR, KD ratio class): AA (a compound having 20 or more is denoted as AA); HRAS/KRAS (ratio of KD value for GDP-bound HRAS wild-type protein to KD value for KRAS) ([2]; SPR, KD ratio class): A (a compound having 10 or more and less than 20 is denoted as A)
